Results: the NIST ThermoML archive (doi:10.1016/j.jct.2017.07.024)
± gives the expanded uncertainty stated by the source.

What was measured:
[1] = for surface tension liquid-gas: Maximal bubble pressure; for mass density: 100 kPa, Liquid, Vibrating tube method
[2] = refractive index (Na D-line) (dimensionless); settings: 100 kPa, Liquid, Standard Abbe refractometry

CCCCCCn1cc[n+](C)c1.C[C@@H](O)[C@H](N)C(=O)[O-] [1-hexyl-3-methylimidazolium DL-threoninate]
Settings | mass density, [1] [kg/m3] | refractive index, [2] | surface tension liquid-gas, [1] [mN/m]
288.15 K | 1089.98 ± 0.68 | 1.5049 ± 0.0013 | 37 ± 0.5
293.15 K | 1086.67 ± 0.68 | 1.5033 ± 0.0013 | 36.6 ± 0.5
298.15 K | 1083.36 ± 0.68 | 1.5019 ± 0.0013 | 36.3 ± 0.5
303.15 K | 1080.02 ± 0.68 | 1.5001 ± 0.0013 | 36 ± 0.5
308.15 K | 1076.7 ± 0.68 | 1.4988 ± 0.0013 | 35.7 ± 0.5
313.15 K | 1073.42 ± 0.67 | 1.4971 ± 0.0013 | 35.4 ± 0.5
318.15 K | 1069.96 ± 0.67 | 1.4957 ± 0.0013 | 35 ± 0.5
323.15 K | 1066.82 ± 0.67 | 1.494 ± 0.0013 | 34.7 ± 0.5
328.15 K | 1063.52 ± 0.67 | 1.4925 ± 0.0013 | 34.4 ± 0.5

CCCCCn1cc[n+](C)c1.C[C@@H](O)[C@H](N)C(=O)[O-] [1-pentyl-3-methylimidazolium DL-threoninate]
Settings | mass density, [1] [kg/m3] | refractive index, [2] | surface tension liquid-gas, [1] [mN/m]
288.15 K | 1107.7 ± 0.68 | 1.508 ± 0.0013 | 38.2 ± 0.5
293.15 K | 1104.39 ± 0.68 | 1.5065 ± 0.0013 | 37.8 ± 0.5
298.15 K | 1101.08 ± 0.68 | 1.5048 ± 0.0013 | 37.6 ± 0.5
303.15 K | 1097.75 ± 0.68 | 1.5032 ± 0.0013 | 37.2 ± 0.5
308.15 K | 1094.43 ± 0.68 | 1.5018 ± 0.0013 | 36.9 ± 0.5
313.15 K | 1091.16 ± 0.68 | 1.5001 ± 0.0013 | 36.6 ± 0.5
318.15 K | 1087.7 ± 0.68 | 1.4987 ± 0.0013 | 36.2 ± 0.5
323.15 K | 1084.55 ± 0.68 | 1.497 ± 0.0013 | 35.9 ± 0.5
328.15 K | 1081.25 ± 0.68 | 1.4955 ± 0.0013 | 35.6 ± 0.5

CCCn1cc[n+](C)c1.C[C@@H](O)[C@H](N)C(=O)[O-] [1-propyl-3-methylimidazolium DL-threoninate]
Settings | mass density, [1] [kg/m3] | refractive index, [2] | surface tension liquid-gas, [1] [mN/m]
288.15 K | 1151.33 ± 0.7 | 1.5147 ± 0.0013 | 41.4 ± 0.5
293.15 K | 1148.8 ± 0.7 | 1.5131 ± 0.0013 | 41.1 ± 0.5
298.15 K | 1144.52 ± 0.7 | 1.5116 ± 0.0013 | 40.7 ± 0.5
303.15 K | 1141.13 ± 0.7 | 1.5101 ± 0.0013 | 40.4 ± 0.5
308.15 K | 1137.76 ± 0.69 | 1.5086 ± 0.0013 | 40.1 ± 0.5
313.15 K | 1134.38 ± 0.69 | 1.5071 ± 0.0013 | 39.8 ± 0.5
318.15 K | 1130.9 ± 0.69 | 1.5055 ± 0.0013 | 39.4 ± 0.5
323.15 K | 1127.5 ± 0.69 | 1.5039 ± 0.0013 | 39.1 ± 0.5
328.15 K | 1124.07 ± 0.69 | 1.5026 ± 0.0013 | 38.7 ± 0.5
